Test [1] relates to Capan-2. In words: Antiproliferative activity against human Capan2 cells harboring TP53 and G12V KRAS mutations assessed as inhibition of cell growth incubated for 96 hrs by cell-titer-Glo 2.0 assay relative to control.
Test [2] deals with BXPC-3. The test can be described thus: Antiproliferative activity against human BxPC3 cells harboring wild type KRAS and TP53 mutation assessed as maximal inhibition of cell growth at 2.5 uM incubated for 96 hrs by cell-titer-Glo assay. Format: functional, cell-based.
For test [3], the system named is BXPC-3. The test can be described thus: Antiproliferative activity against human BxPC3 cells harboring wild type KRAS and TP53 mutation assessed as inhibition of cell growth at 25 uM incubated for 96 hrs by cell-titer-Glo 2.0 assay. Format: functional, cell-based.
For test [4], the system named is Capan-2. The test can be described thus: Antiproliferative activity against human Capan2 cells harboring TP53 and G12V KRAS mutations assessed as inhibition of cell growth at 25 uM incubated for 96 hrs by cell-titer-Glo 2.0 assay.
The test system of test [5] is BXPC-3. The test can be described thus: Antiproliferative activity against human BxPC3 cells harboring wild type KRAS and TP53 mutation assessed as cell killing incubated for 96 hrs by cell-titer-Glo 2.0 assay relative to control. Type of test: functional.
The test system of test [6] is Capan-2. In words: Antiproliferative activity against human Capan2 cells harboring TP53 and G12V KRAS mutations assessed as inhibition of cell growth incubated for 96 hrs by cell-titer-Glo assay. The note with it: Capan-2, 96 h.
Test [7] concerns Capan-2. In words: Antiproliferative activity against human Capan2 cells harboring TP53 and G12V KRAS mutations assessed as cell killing incubated for 96 hrs by cell-titer-Glo 2.0 assay relative to control.
Test [8] deals with BXPC-3. In words: Antiproliferative activity against human BxPC3 cells harboring wild type KRAS and TP53 mutation assessed as inhibition of cell growth incubated for 96 hrs by cell-titer-Glo 2.0 assay. Type of test: functional, cell-based. As to conditions: BXPC-3, 96 h.

The source made the active and inactive calls. The calls are words filed in the database; no cut-off is given here.

Consider `Nc1ccn([C@@H]2O[C@H](CO)[C@@H](O)C2(F)F)c(=O)n1` [GEMCITABINE], for which the Imax in test [1] is 40%. The inhibition entry in test [2] is “Active”.

For the compound `C[C@]1(CC#N)[C@H](F)[C@H](n2cnc3c(N)nc(Cl)nc32)O[C@@H]1CO`, the inhibition entry in test [3] and in test [4] was “inactive” each time.

In the case of `C[C@]1(CC#N)[C@H](F)[C@H](n2cnc3c(NCc4ccccc4)nc(Cl)nc32)O[C@@H]1CO`, in test [5], the Activity turned out to be 20%.

One may read the EC50 as the concentration at which the effect is half-maximal. In the case of `CC(C)OC(=O)[C@H](C)N[P@](=O)(OC[C@H]1O[C@@H](n2cnc3c(NCc4ccccc4)nc(Cl)nc32)[C@@H](F)[C@]1(C)CC#N)Oc1ccccc1`, the EC50 came to 7 µM in test [6] and 12 µM in test [8]. The Activity in test [7] is given as 80%; in test [5], 60%.

The values above are taken from ChEMBL document CHEMBL4616616, “Identification of a C3'-nitrile nucleoside analogue inhibitor of pancreatic cancer cell line growth” (Bioorg Med Chem Lett, 2020).
